Here are results for one compound from patent US10206906B2, “Synergistic combination of a phenolic-rich maple syrup extract and an antibiotic” (priority 2015, dated 2019).

For one assay, the system named is E. coli CFT073. As to the kind of experiment: Bacterial colony forming ability (CFU counts after exposure). In kind it is cell-based, Escherichia coli. The conditions noted are these: log decrease vs untreated control, 4 × MIC, 10 min, CTAB 10 μM. As for the experimental part: (§1) The BacLight kit (L-13152, Invitrogen™, Life Technologies Inc., Canada) is used to assess cell membrane damage. Overnight bacterial cultures are diluted 1:40 in fresh MHBII broth to a final volume of 5 mL, grown to an OD600 of 0.5-0.6, washed with filter-sterilized 10 mM phosphate buffered saline (PBS, pH 7.0) and resuspended in 1/10 of the original volume. […] Cultures are incubated at room temperature (21±2° C.) on a tube rocker for 10 min. At the end of the incubation period, an aliquot is taken for CFU counts and the remaining suspension is washed with 10 mM PBS and resuspended to an OD600) of 0.3. An aliquot (100 μL) of each bacterial suspension is removed and added to a 96-well, black, clear-bottom plate (Corning™, Fisher Scientific, ON, Canada) along with an equal volume of the BacLight™ reagent (2× stock solution, L13152, Invitrogen™, Life Technologies Inc., Canada) and the plates are incubated for 10 min at room temperature in the dark. At the end of the incubation period, fluorescence intensity is recorded for both kit components, SYTO-9 (ex/em 485/530 nm) and propidium iodide (ex/em 485/645 nm), using the microplate reader. Fluorescence readings from samples are normalized to the values obtained from untreated control to determine the ratio of membrane compromised cells to cells with intact membrane. Cetyltrimethylammonium bromide (CTAB, Sigma-Aldrich Canada), a cationic detergent that is known to cause membrane damage, is used at concentration of 10 μM as a positive control for membrane disruption.

Assay [1] relates to cell membrane of E. coli CFT073. Put plainly: BacLight membrane integrity assay. The format is cell-based, Escherichia coli. The settings on record: PRMSE, catechol at 4 × MIC for 10 min; CTAB 10 μM; untreated = 100. As for the experimental part:
as §1, with “Cetyltrimethylammonium bromide (CTAB, Sigma-Aldrich Canada), a cationic detergent that is known to cause membrane damage, is used at concentration of 10 μM as a positive control for membrane disruption.” left out

Assay [2] has as its system proton motive force-driven multidrug efflux pump of E. coli CFT073. As to the kind of experiment: Ethidium bromide (EtBr) efflux assay. The format is cell-based, Escherichia coli. The conditions noted are these: PRMSE, catechol at 0.25 times the MIC; CCCP 100 μM; untreated cells 36.9. The protocol:
An overnight grown culture of each strain is diluted 1:100 using MHB-II broth to a final volume of 10 mL and grown to an OD600 of 0.8-1.0 (at 37° C., 150 rpm). […] The tubes are incubated for 1 h (37° C., 150 rpm). The inoculum is then adjusted to 0.4 OD600 with MHB-II broth containing 5 μM EtBr and 2 mL aliquots of this mixture are pelleted (5000×g, 10 min at 4° C.). The pellets are incubated on ice immediately, resuspended in 1 mL of MHB-II, and aliquoted (200 μL) into a polystyrene 96 well black, clear-bottom plate (Corning™, Fisher Scientific, ON, Canada). EtBr efflux from the cells is monitored at room temperature using the microplate reader (ex/em 530/600 nm). Readings are taken at 5 min intervals for 1 h to monitor efflux pump activity. The background fluorescence of the medium is subtracted from all measurements and the assay is repeated independently in triplicate.

The subject of assay [3] is cell membrane of P. mirabilis HI4320. Put plainly: BacLight membrane integrity assay. In kind it is cell-based, Proteus mirabilis. The conditions noted are these: PRMSE, catechol at 4 × MIC for 10 min; CTAB 10 μM; untreated = 100. The protocol:
as §1, with “Cetyltrimethylammonium bromide (CTAB, Sigma-Aldrich Canada), a cationic detergent that is known to cause membrane damage, is used at concentration of 10 μM as a positive control for membrane disruption.” left out

Assay [4] concerns outer membrane of P. aeruginosa PAO1. As to the kind of experiment: Outer membrane permeabilization, NPN uptake assay. The format is cell-based, Pseudomonas aeruginosa. The conditions noted are these: sub-MIC; concentration giving maximal increase in NPN uptake. As for the experimental part:
(§2) The cells are harvested, washed with 5 mM HEPES buffer (pH 7.2), and resuspended in the same volume (10 mL) of 5 mM HEPES buffer (pH 7.2) containing 1 mM N-ethylmaleimide (NEM, Sigma-Aldrich Canada). Aliquots (1 mL) are mixed with NPN to a final concentration of 10 μM (in cell suspension) and fluorescence is measured using the microplate reader (ex/em 350/420 nm).

The subject of assay [5] is outer membrane of P. aeruginosa PA14. Put plainly: Outer membrane permeabilization, NPN uptake assay. The settings on record: sub-MIC; concentration giving maximal increase in NPN uptake. In kind it is cell-based, Pseudomonas aeruginosa. As for the experimental part: as §2
A further assay has as its system P. mirabilis HI4320. As to the kind of experiment: Bacterial colony forming ability (CFU counts after exposure). The format is cell-based, Proteus mirabilis. The conditions noted are these: log decrease vs untreated control, 4 × MIC, 10 min, CTAB 10 μM. The protocol:
as §1

For `Oc1ccccc1O` [catechol, 1,2-dihydroxybenzene], the “Bacterial colony forming ability (Δ log CFU mL^−1)” value with E. coli CFT073 is reported as 2.3 Δ log CFU mL^−1; in the assay with E. coli CFT073 (listed as Catechol) it was ≥ 1.5 Δ log CFU mL^−1; in the assay on P. mirabilis HI4320 it was 3.2 Δ log CFU mL^−1; in the assay with P. mirabilis HI4320 (listed as Catechol), ≥ 1.5 Δ log CFU mL^−1. Moreover, the “% cells with uncompromised membrane (BacLight assay)” value in assay [1] is reported as 68%. For the same compound, in assay [2], the Efflux pump activity came out at 34.3%. In addition, in assay [3], the “% cells with uncompromised membrane” value is 50.3%. Further, the Minimum permeabilization concentration in assay [4] and in assay [5] was 0.5 mg/mL in each case.
